Reference: ChEMBL document CHEMBL2034833, “Synthesis of chalcone-amidobenzothiazole conjugates as antimitotic and apoptotic inducing agents” (Bioorg Med Chem, 2012)

Experiments:
NCI-H522 = experiment: Growth inhibition of human NCI-H522 cells after 48 hrs by sulforhodamine B assay; format: functional; conditions: NCI-H522, 48 h
COLO 205 = experiment: Growth inhibition of human COLO205 cells after 48 hrs by sulforhodamine B assay; format: functional; conditions: COLO 205, 48 h
HCC 2998 = experiment: Growth inhibition of human HCC2998 cells after 48 hrs by sulforhodamine B assay; format: functional; conditions: HCC 2998, 48 h
HCT-116 = experiment: Growth inhibition of human HCT116 cells after 48 hrs by sulforhodamine B assay; format: functional; conditions: HCT-116, 48 h
HCT-15 = experiment: Growth inhibition of human HCT15 cells after 48 hrs by sulforhodamine B assay; format: functional; conditions: HCT-15, 48 h
HT-29 = experiment: Growth inhibition of human HT-29 cells after 48 hrs by sulforhodamine B assay; format: functional; conditions: HT-29, 48 h
KM12 = experiment: Growth inhibition of human KM12 cells after 48 hrs by sulforhodamine B assay; format: functional; conditions: KM12, 48 h
SW-620 = experiment: Growth inhibition of human SW620 cells after 48 hrs by sulforhodamine B assay; format: functional; conditions: SW-620, 48 h
PC-3 = experiment: Growth inhibition of human PC3 cells after 48 hrs by sulforhodamine B assay; format: functional; conditions: PC-3, 48 h
DU-145 = experiment: Growth inhibition of human DU145 cells after 48 hrs by sulforhodamine B assay; format: functional; conditions: DU-145, 48 h
MCF7 [1] = experiment: Growth inhibition of human MCF7 cells after 48 hrs by sulforhodamine B assay; format: functional; conditions: MCF7, 48 h
MDA-MB-231 = experiment: Growth inhibition of human MDA-MB-231 cells after 48 hrs by sulforhodamine B assay; format: functional; conditions: MDA-MB-231, 48 h
Hs-578T = experiment: Growth inhibition of human Hs578T cells after 48 hrs by sulforhodamine B assay; format: functional
BT-549 = experiment: Growth inhibition of human BT549 cells after 48 hrs by sulforhodamine B assay; format: functional; conditions: BT-549, 48 h
T47D = experiment: Growth inhibition of human T47D cells after 48 hrs by sulforhodamine B assay; format: functional
MDA-MB-468 = experiment: Growth inhibition of human MDA-MB-468 cells after 48 hrs by sulforhodamine B assay; format: functional; conditions: MDA-MB-468, 48 h
SF-268 = experiment: Growth inhibition of human SF268 cells after 48 hrs by sulforhodamine B assay; format: functional; conditions: SF-268, 48 h
SF-295 = experiment: Growth inhibition of human SF295 cells after 48 hrs by sulforhodamine B assay; format: functional; conditions: SF-295, 48 h
SF-539 = experiment: Growth inhibition of human SF539 cells after 48 hrs by sulforhodamine B assay; format: functional; conditions: SF-539, 48 h
SNB-19 = experiment: Growth inhibition of human SNB19 cells after 48 hrs by sulforhodamine B assay; format: functional; conditions: SNB-19, 48 h
SNB-75 = experiment: Growth inhibition of human SNB75 cells after 48 hrs by sulforhodamine B assay; format: functional; conditions: SNB-75, 48 h
U-251 = experiment: Growth inhibition of human U251 cells after 48 hrs by sulforhodamine B assay; format: functional; conditions: U-251, 48 h
LOX IMVI = experiment: Growth inhibition of human LOXIMVI cells after 48 hrs by sulforhodamine B assay; format: functional
Malme-3M = experiment: Growth inhibition of human MALME-3M cells after 48 hrs by sulforhodamine B assay; format: functional
M14 = experiment: Growth inhibition of human M14 cells after 48 hrs by sulforhodamine B assay; format: functional; conditions: M14, 48 h
MDA-MB-435 = experiment: Growth inhibition of human MDA-MB-435 cells after 48 hrs by sulforhodamine B assay; format: functional; conditions: MDA-MB-435, 48 h
SK-MEL-2 = experiment: Growth inhibition of human SK-MEL-2 cells after 48 hrs by sulforhodamine B assay; format: functional; conditions: SK-MEL-2, 48 h
SK-MEL-28 = experiment: Growth inhibition of human SK-MEL-28 cells after 48 hrs by sulforhodamine B assay; format: functional; conditions: SK-MEL-28, 48 h
SK-MEL-5 = experiment: Growth inhibition of human SK-MEL-5 cells after 48 hrs by sulforhodamine B assay; format: functional; conditions: SK-MEL-5, 48 h
UACC-257 = experiment: Growth inhibition of human UACC257 cells after 48 hrs by sulforhodamine B assay; format: functional; conditions: UACC-257, 48 h
UACC-62 = experiment: Growth inhibition of human UACC62 cells after 48 hrs by sulforhodamine B assay; format: functional; conditions: UACC-62, 48 h
IGROV-1 = experiment: Growth inhibition of human IGROV1 cells after 48 hrs by sulforhodamine B assay; format: functional; conditions: IGROV-1, 48 h
OVCAR-3 = experiment: Growth inhibition of human OVCAR3 cells after 48 hrs by sulforhodamine B assay; format: functional; conditions: OVCAR-3, 48 h
OVCAR-4 = experiment: Growth inhibition of human OVCAR4 cells after 48 hrs by sulforhodamine B assay; format: functional; conditions: OVCAR-4, 48 h
OVCAR-5 = experiment: Growth inhibition of human OVCAR5 cells after 48 hrs by sulforhodamine B assay; format: functional; conditions: OVCAR-5, 48 h
OVCAR-8 = experiment: Growth inhibition of human OVCAR8 cells after 48 hrs by sulforhodamine B assay; format: functional; conditions: OVCAR-8, 48 h
NCI/ADR-RES = experiment: Growth inhibition of human NCI/ADR-RES cells after 48 hrs by sulforhodamine B assay; format: functional
SK-OV-3 = experiment: Growth inhibition of human SKOV3 cells after 48 hrs by sulforhodamine B assay; format: functional; conditions: SK-OV-3, 48 h
A549 = experiment: cells; conditions: Homo sapiens, A549, 48 h
Description: Cytotoxicity against human A549 cells after 48 hrs by MTT assay

MCF7 [2] = experiment: cells; conditions: Homo sapiens, MCF7, 48 h
Description: Cytotoxicity against human MCF7 cells after 48 hrs by MTT assay

Question: Which GI50 (NCI-H522) does the source give for `COc1ccc(/C=C/C(=O)c2cc(OC)c(OC)c(OC)c2)cc1OCC(=O)Nc1nc2ccc(OC(F)(F)F)cc2s1` here?
Answer: 670 nM

Question: And the GI50 (COLO 205)?
Answer: 6370 nM

Question: And the GI50 (HCC 2998)?
Answer: 6180 nM

Question: And the GI50 (HCT-116)?
Answer: 1430 nM

Question: And the GI50 (HCT-15)?
Answer: 400 nM

Question: What about the GI50 (HT-29) of the same molecule?
Answer: 3660 nM

Question: And the GI50 (KM12)?
Answer: 1510 nM

Question: What about the GI50 (SW-620) of the same molecule?
Answer: 1080 nM

Question: What about the GI50 (PC-3) of the same molecule?
Answer: 3140 nM

Question: And the GI50 (DU-145)?
Answer: 1560 nM

Question: And the GI50 (MCF7 [1])?
Answer: 1320 nM

Question: What about the GI50 (MDA-MB-231) of the same molecule?
Answer: 2010 nM

Question: And the GI50 (Hs-578T)?
Answer: 3080 nM

Question: And the GI50 (BT-549)?
Answer: 2710 nM

Question: And the GI50 (T47D)?
Answer: 3080 nM

Question: And the GI50 (MDA-MB-468)?
Answer: 3520 nM

Question: And the GI50 (SF-268)?
Answer: 1200 nM

Question: And the GI50 (SF-295)?
Answer: 2210 nM

Question: And the GI50 (SF-539)?
Answer: 300 nM

Question: What about the GI50 (SNB-19) of the same molecule?
Answer: 1580 nM

Question: What about the GI50 (SNB-75) of the same molecule?
Answer: 340 nM

Question: What about the GI50 (U-251) of the same molecule?
Answer: 700 nM

Question: And the GI50 (LOX IMVI)?
Answer: 470 nM

Question: And the GI50 (Malme-3M)?
Answer: 2690 nM

Question: And the GI50 (M14)?
Answer: 1720 nM

Question: And the GI50 (MDA-MB-435)?
Answer: 300 nM

Question: What about the GI50 (SK-MEL-2) of the same molecule?
Answer: 4970 nM

Question: And the GI50 (SK-MEL-28)?
Answer: 3310 nM

Question: What about the GI50 (SK-MEL-5) of the same molecule?
Answer: 2030 nM

Question: And the GI50 (UACC-257)?
Answer: 8080 nM

Question: And the GI50 (UACC-62)?
Answer: 9520 nM

Question: What about the GI50 (IGROV-1) of the same molecule?
Answer: 2540 nM

Question: And the GI50 (OVCAR-3)?
Answer: 1520 nM

Question: And the GI50 (OVCAR-4)?
Answer: 2070 nM

Question: And the GI50 (OVCAR-5)?
Answer: 4760 nM

Question: What about the GI50 (OVCAR-8) of the same molecule?
Answer: 1540 nM

Question: And the GI50 (NCI/ADR-RES)?
Answer: 490 nM

Question: And the GI50 (SK-OV-3)?
Answer: 2160 nM

Question: And the IC50 (A549)?
Answer: 900 nM

Question: What about the IC50 (MCF7 [2]) of the same molecule?
Answer: 3300 nM
